Reference: article PMC6923176, “High-Throughput Screening of a 2-Keto-L-Gulonic Acid-Producing Gluconobacter oxydans Strain Based on Related Dehydrogenases” (Frontiers in Bioengineering and Biotechnology, 2019)

Assays:
Test in all cases: NADH consumption, A340
Assay type in all cases: biochemical
Conditions in all cases: NAD(P)H-dependent reduction; co-substrate, pH and temperature of the Km series not given (unit definition: NADH, pH 7.0, 37 C)
[1] = molecular target: T1, ANI-2KR (2-KLG reductase, 2kr) (Aspergillus niger, UniProt A2Q988)
T1 construct: gene An01g07030; full length, synthetic gene without stop codon, BamHI/SalI in pET28a(+), His-tagged, E. coli BL21(DE3), Ni-NTA
T1 sequence (A2Q988 1-339): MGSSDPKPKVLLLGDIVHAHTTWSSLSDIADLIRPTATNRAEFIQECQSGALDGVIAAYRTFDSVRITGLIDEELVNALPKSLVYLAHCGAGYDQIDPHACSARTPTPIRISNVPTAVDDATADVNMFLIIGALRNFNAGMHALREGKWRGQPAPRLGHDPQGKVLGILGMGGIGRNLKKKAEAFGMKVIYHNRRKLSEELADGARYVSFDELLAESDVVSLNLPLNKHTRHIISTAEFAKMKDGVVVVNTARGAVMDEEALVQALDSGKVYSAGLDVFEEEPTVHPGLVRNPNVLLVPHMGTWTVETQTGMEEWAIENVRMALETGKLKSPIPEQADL

[2] = molecular target: T2, ANI-GLUD (2-KLG reductase, GLUD) (Aspergillus niger, UniProt A0A1D8RK43)
T2 construct: full length, synthetic gene without stop codon, BamHI/SalI in pET28a(+), His-tagged, E. coli BL21(DE3), Ni-NTA
T2 sequence (A0A1D8RK43 1-331): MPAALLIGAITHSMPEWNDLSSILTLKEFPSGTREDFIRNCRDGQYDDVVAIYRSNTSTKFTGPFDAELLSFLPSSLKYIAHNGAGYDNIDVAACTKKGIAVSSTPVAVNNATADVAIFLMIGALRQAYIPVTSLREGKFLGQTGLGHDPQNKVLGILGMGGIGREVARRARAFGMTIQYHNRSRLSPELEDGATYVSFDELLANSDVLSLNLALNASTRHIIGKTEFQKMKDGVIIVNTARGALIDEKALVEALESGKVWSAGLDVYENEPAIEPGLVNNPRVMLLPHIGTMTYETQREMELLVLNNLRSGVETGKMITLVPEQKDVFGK

[3] = molecular target: T3, CFR-2KR (2-KLG reductase, 2kr) (Citrobacter freundii, UniProt A0A0P8I5D5)
T3 construct: gene ghrB; full length, His-tagged from pET28a(+), EcoRI/SalI, E. coli BL21(DE3), Ni-NTA
T3 sequence (A0A0P8I5D5 1-324): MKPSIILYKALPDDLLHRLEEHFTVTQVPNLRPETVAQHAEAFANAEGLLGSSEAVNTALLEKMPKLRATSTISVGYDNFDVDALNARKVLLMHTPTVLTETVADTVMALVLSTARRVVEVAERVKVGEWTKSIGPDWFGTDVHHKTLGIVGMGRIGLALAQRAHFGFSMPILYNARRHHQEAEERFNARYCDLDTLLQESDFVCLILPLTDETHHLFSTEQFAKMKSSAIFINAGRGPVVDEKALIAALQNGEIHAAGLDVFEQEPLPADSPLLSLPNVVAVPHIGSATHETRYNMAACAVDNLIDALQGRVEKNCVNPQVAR

Measured: Km

O=C(O)C(=O)[C@@H](O)[C@H](O)[C@@H](O)CO [2-KLG, 2-keto-L-gulonic acid]
Km and Vmax values for 2-KLG reductases: all assays above
